From patent US20100105655A1, “NOVEL COMPOUNDS 515” (ASTRAZENECA AB, priority 2008, published 2010)

Each compound was assayed against T1, IGFR kinase (Homo sapiens, UniProt P08069) (assay: Enzyme assay (c), IGFR kinase, Caliper LabChip). Conditions: 30 nM IGFR kinase, 6 uM ATP, 3 uM peptide mix; read-out: IGFR IC50.
T1 construct: purchased Millipore
Type: biochemical
Protocol: For Echo dosing the solvent was 100% DMSO. A master plate was prepared with 40 ul of 10 mM stock solution of the test compound in DMSO in quadrant 1 of a Labcyte 384 well plate. A 1 in 100 dilution was made from quadrant 1 into quadrant 2 by removing 0.4 ul and adding it to 39.6 ul of DMSO. Subsequent 1 in 100 dilutions were made into quadrant 3 from quadrant 2 and quadrant 4 from quadrant 3.
Multiple 2.5 nl droplets were dispensed from each quadrant of the master plate to generate the dose range that was required in the test. The dose range most commonly used was as follows: 100 uM, 30 uM, 10 uM, 3 uM, 1 uM, 0.3 uM, 0.1 uM, 0.03 uM, 0.01 uM, 0.003 uM, 0.001 uM, 0.0001 uM. Each well was backfilled with dimethyl sulfoxide (DMSO) to a total volume of 120 nl, such that when the enzyme and substrate mix was added the final DMSO concentration was 1%.
DMSO was added to max control wells as 120 nl, minimum control wells were treated with 120 nl of compound at a concentration that inhibited the enzyme activity 100%.
Integration of the substrate and product peaks was carried out using Caliper LabChip software and IC50 curves were calculated using Origin™ software.

T1 sequence (P08069 31-1367): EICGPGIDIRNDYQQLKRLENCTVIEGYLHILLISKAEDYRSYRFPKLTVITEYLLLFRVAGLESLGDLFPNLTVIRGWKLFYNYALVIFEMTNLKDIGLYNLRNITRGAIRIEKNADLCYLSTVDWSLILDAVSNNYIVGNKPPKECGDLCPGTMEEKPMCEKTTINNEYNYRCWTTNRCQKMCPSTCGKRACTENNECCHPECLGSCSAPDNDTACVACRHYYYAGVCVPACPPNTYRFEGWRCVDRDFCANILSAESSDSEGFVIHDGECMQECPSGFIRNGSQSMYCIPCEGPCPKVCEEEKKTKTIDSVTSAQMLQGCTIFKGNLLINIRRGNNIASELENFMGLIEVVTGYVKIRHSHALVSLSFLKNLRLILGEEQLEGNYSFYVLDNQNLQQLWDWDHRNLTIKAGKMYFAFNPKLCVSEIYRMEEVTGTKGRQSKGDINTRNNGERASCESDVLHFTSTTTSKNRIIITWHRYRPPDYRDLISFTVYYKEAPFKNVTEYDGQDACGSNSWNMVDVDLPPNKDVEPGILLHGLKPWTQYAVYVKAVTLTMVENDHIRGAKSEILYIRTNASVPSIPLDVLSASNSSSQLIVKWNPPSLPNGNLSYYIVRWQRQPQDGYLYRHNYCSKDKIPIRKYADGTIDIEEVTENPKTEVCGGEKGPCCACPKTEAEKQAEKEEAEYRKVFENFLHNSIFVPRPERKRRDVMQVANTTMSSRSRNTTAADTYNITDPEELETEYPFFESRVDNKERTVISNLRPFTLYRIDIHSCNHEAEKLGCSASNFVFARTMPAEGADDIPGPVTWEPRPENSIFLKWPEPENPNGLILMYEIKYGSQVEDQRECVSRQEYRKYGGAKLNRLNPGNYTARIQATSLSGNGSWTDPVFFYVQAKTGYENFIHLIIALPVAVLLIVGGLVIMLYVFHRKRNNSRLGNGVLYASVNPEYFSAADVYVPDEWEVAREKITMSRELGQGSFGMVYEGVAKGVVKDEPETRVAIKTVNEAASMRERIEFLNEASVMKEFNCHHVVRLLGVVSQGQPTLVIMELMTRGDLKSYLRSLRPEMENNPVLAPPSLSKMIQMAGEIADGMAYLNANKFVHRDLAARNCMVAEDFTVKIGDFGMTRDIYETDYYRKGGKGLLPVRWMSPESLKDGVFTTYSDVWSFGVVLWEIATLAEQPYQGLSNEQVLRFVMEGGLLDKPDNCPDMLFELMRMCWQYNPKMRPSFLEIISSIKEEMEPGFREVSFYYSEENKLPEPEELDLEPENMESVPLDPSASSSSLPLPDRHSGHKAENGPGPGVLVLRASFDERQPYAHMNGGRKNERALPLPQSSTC

SMILES	IC50 [nM]
COc1cc(C=O)ccc1Nc1ncc(Cl)c(-c2cnc3ccccn23)n1 [Example 20A, 4-(5-chloro-4-(imidazo[1,2-a]pyridin-3-yl)pyrimidin-2-ylamino)-3-methoxybenzaldehyde]	68
COc1cc(CNCCO)ccc1Nc1ncc(Cl)c(-c2cnc3ccccn23)n1 [Example 21.1, 2-[[4-[(5-chloro-4-imidazo[1,2-a]pyridin-3-yl-pyrimidin-2-yl)amino]-3-methoxy-phenyl]methylamino]ethanol]	19
COc1cc(CN(C)CCO)ccc1Nc1ncc(Cl)c(-c2cnc3ccccn23)n1 [Example 21.2, 2-[[4-[(5-chloro-4-imidazo[1,2-a]pyridin-3-yl-pyrimidin-2-yl)amino]-3-methoxy-phenyl]methyl-methyl-amino]ethanol]	37
COc1cc(CNCCCO)ccc1Nc1ncc(Cl)c(-c2cnc3ccccn23)n1 [Example 21.3, 3-[[4-[(5-chloro-4-imidazo[1,2-a]pyridin-3-yl-pyrimidin-2-yl)amino]-3-methoxy-phenyl]methylamino]propan-1-ol]	20
COc1cc(CN2CCN(C)CC2)ccc1Nc1ncc(Cl)c(-c2cnc3ccccn23)n1 [Example 21.4, 5-chloro-4-imidazo[1,2-a]pyridin-3-yl-N-[2-methoxy-4-[(4-methylpiperazin-1-yl)methyl]phenyl]pyrimidin-2-amine]	30
COc1cc(CN2CCC(O)CC2)ccc1Nc1ncc(Cl)c(-c2cnc3ccccn23)n1 [Example 21.5, 1-[[4-[(5-chloro-4-imidazo[1,2-a]pyridin-3-yl-pyrimidin-2-yl)amino]-3-methoxy-phenyl]methyl]piperidin-4-ol]	28
COc1cc(CN2CCN(C(C)=O)CC2)ccc1Nc1ncc(Cl)c(-c2cnc3ccccn23)n1 [Example 21.6, 1-[4-[[4-[(5-chloro-4-imidazo[1,2-a]pyridin-3-yl-pyrimidin-2-yl)amino]-3-methoxy-phenyl]methyl]piperazin-1-yl]ethanone]	26
COc1cc(CN2CCC(C(N)=O)CC2)ccc1Nc1ncc(Cl)c(-c2cnc3ccccn23)n1 [Example 21.7, 1-[[4-[(5-chloro-4-imidazo[1,2-a]pyridin-3-yl-pyrimidin-2-yl)amino]-3-methoxy-phenyl]methyl]piperidine-4-carboxamide]	31
COc1cc(CN2CCN(CCO)CC2)ccc1Nc1ncc(Cl)c(-c2cnc3ccccn23)n1 [Example 21.8, 2-[4-[[4-[(5-chloro-4-imidazo[1,2-a]pyridin-3-yl-pyrimidin-2-yl)amino]-3-methoxy-phenyl]methyl]piperazin-1-yl]ethanol]	20
COCCCNCc1ccc(Nc2ncc(Cl)c(-c3cnc4ccccn34)n2)c(OC)c1 [Example 21.9, 5-chloro-4-imidazo[1,2-a]pyridin-3-yl-N-[2-methoxy-4-[(3-methoxypropylamino)methyl]phenyl]pyrimidin-2-amine]	17
COc1cc(CN2CCC2)ccc1Nc1ncc(Cl)c(-c2cnc3ccccn23)n1 [Example 21.10, N-[4-(azetidin-1-ylmethyl)-2-methoxy-phenyl]-5-chloro-4-imidazo[1,2-a]pyridin-3-yl-pyrimidin-2-amine]	18
COc1cc(CN2CCCN(C)CC2)ccc1Nc1ncc(Cl)c(-c2cnc3ccccn23)n1 [Example 21.11, 5-chloro-4-imidazo[1,2-a]pyridin-3-yl-N-[2-methoxy-4-[(4-methyl-1,4-diazepan-1-yl)methyl]phenyl]pyrimidin-2-amine]	23
COc1cc(CN2CCC[C@@H](O)C2)ccc1Nc1ncc(Cl)c(-c2cnc3ccccn23)n1 [Example 21.12, (3R)-1-[[4-[(5-chloro-4-imidazo[1,2-a]pyridin-3-yl-pyrimidin-2-yl)amino]-3-methoxy-phenyl]methyl]piperidin-3-ol]	24
COCCN(C)Cc1ccc(Nc2ncc(Cl)c(-c3cnc4ccccn34)n2)c(OC)c1 [Example 21.13, 5-chloro-4-imidazo[1,2-a]pyridin-3-yl-N-[2-methoxy-4-[(2-methoxyethyl-methyl-amino)methyl]phenyl]pyrimidin-2-amine]	32
COc1cc(CN2CCCOCC2)ccc1Nc1ncc(Cl)c(-c2cnc3ccccn23)n1 [Example 21.14, 5-chloro-4-imidazo[1,2-a]pyridin-3-yl-N-[2-methoxy-4-(1,4-oxazepan-4-ylmethyl)phenyl]pyrimidin-2-amine]	28
COc1cc(CN[C@H](C)CO)ccc1Nc1ncc(Cl)c(-c2cnc3ccccn23)n1 [Example 21.15, (2R)-2-[[4-[(5-chloro-4-imidazo[1,2-a]pyridin-3-yl-pyrimidin-2-yl)amino]-3-methoxy-phenyl]methylamino]propan-1-ol]	26
COc1cc(CN2CC(O)C2)ccc1Nc1ncc(Cl)c(-c2cnc3ccccn23)n1 [Example 21.16, 1-[[4-[(5-chloro-4-imidazo[1,2-a]pyridin-3-yl-pyrimidin-2-yl)amino]-3-methoxy-phenyl]methyl]azetidin-3-ol]	22
COc1cc(CN2CCC[C@H](O)C2)ccc1Nc1ncc(Cl)c(-c2cnc3ccccn23)n1 [Example 21.17, (3S)-1-[[4-[(5-chloro-4-imidazo[1,2-a]pyridin-3-yl-pyrimidin-2-yl)amino]-3-methoxy-phenyl]methyl]piperidin-3-ol]	28
COc1cc(CN2CC[C@@H](O)C2)ccc1Nc1ncc(Cl)c(-c2cnc3ccccn23)n1 [Example 21.18, (3R)-1-[[4-[(5-chloro-4-imidazo[1,2-a]pyridin-3-yl-pyrimidin-2-yl)amino]-3-methoxy-phenyl]methyl]pyrrolidin-3-ol]	17
COc1cc(CN[C@@H](C)CO)ccc1Nc1ncc(Cl)c(-c2cnc3ccccn23)n1 [Example 21.19, (2S)-2-[[4-[(5-chloro-4-imidazo[1,2-a]pyridin-3-yl-pyrimidin-2-yl)amino]-3-methoxy-phenyl]methylamino]propan-1-ol]	23
COc1cc(N2CCN(C(=O)C3(O)CC3)CC2)ccc1Nc1ncc(Cl)c(-c2cnc3ccccn23)n1 [Example 22, [4-[4-[(5-chloro-4-imidazo[1,2-a]pyridin-3-yl-pyrimidin-2-yl)amino]-3-methoxy-phenyl]piperazin-1-yl]-(1-hydroxycyclopropyl)methanone]	15
COc1cc(N2CCN(C(=O)[C@@H]3CCCN3)CC2)ccc1Nc1ncc(Cl)c(-c2cnc3ccccn23)n1 [Example 23, [4-[4-[(5-chloro-4-imidazo[1,2-a]pyridin-3-yl-pyrimidin-2-yl)amino]-3-methoxy-phenyl]piperazin-1-yl]-[(2S)-pyrrolidin-2-yl]methanone]	9
COc1cc(N2CCN(C(=O)[C@H]3CCCCN3)CC2)ccc1Nc1ncc(Cl)c(-c2cnc3ccccn23)n1 [Example 24.1, [4-[4-[(5-chloro-4-imidazo[1,2-a]pyridin-3-yl-pyrimidin-2-yl)amino]-3-methoxy-phenyl]piperazin-1-yl]-[(2R)-2-piperidyl]methanone]	8
COc1cc(N2CCN(C(=O)[C@@H]3CCCCN3)CC2)ccc1Nc1ncc(Cl)c(-c2cnc3ccccn23)n1 [Example 24.2, [4-[4-[(5-chloro-4-imidazo[1,2-a]pyridin-3-yl-pyrimidin-2-yl)amino]-3-methoxy-phenyl]piperazin-1-yl]-[(2S)-2-piperidyl]methanone]	6
